Test results: publication PMC7576722, “An immunochemistry-based screen for chemical inhibitors of DNA-protein interactions and its application to human CGGBP1” (BMC Cancer, 2020)

Legend:
[1] = biological target: T1, rCGGBP1 (Homo sapiens, UniProt Q9UFW8); experiment: in vitro Alu DNA immunoprecipitation with qPCR (anti-FLAG); type: binding; conditions: 100 μM compound, 45 min, room temperature, PBS; Alu DNA 1 μg, protein 0.5 μg
T1 construct: gene CGGBP1; recombinant, C-terminal FLAG tag; about 20 kDa
T1 sequence (Q9UFW8 1-167): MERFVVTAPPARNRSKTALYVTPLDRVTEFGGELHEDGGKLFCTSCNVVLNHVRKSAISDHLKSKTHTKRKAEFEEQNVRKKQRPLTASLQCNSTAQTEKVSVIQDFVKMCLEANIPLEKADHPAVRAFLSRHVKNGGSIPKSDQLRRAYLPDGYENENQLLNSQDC
Experimental: in vitro Alu DNA immunoprecipitation with qPCR (anti-FLAG) on rCGGBP1 | Pre-incubation of rCGGBP1 with Givinostat reduces the amount of Alu DNA co-precipitating with FLAG-antibody by […]

[2] = biological target: T1, rCGGBP1; experiment: DBID dot blot of protein binding to immobilised genomic DNA, chemiluminescence densitometry; conditions: 100 μM compound, 45 min, 4 °C, RIPA buffer; sonicated HEK293T genomic DNA

% reduction of co-precipitated Alu DNA at 100 μM [1]	Structure (SMILES)	DBID dot blot of protein binding to immobilised genomic DNA, chemiluminescence d [2]
70-80%	CCN(CC)Cc1ccc2cc(COC(=O)Nc3ccc(C(=O)NO)cc3)ccc2c1 [Givinostat]	
	CC(NC(=O)c1ccccc1/N=C/c1c(O)ccc2ccccc12)c1ccccc1 (stereo not drawn) [Sirtinol]	(ii) moderate inhibition (Sirtinol and Tenovin-I)
	CC(=O)Nc1ccc(NC(=S)NC(=O)c2ccc(C(C)(C)C)cc2)cc1 [Tenovin-1]	(ii) moderate inhibition (Sirtinol and Tenovin-I)
